Measurements from paper PMC6599797, “Functional characterization of three flavonoid glycosyltransferases from Andrographis paniculata” (Royal Society Open Science, 2019).

Assays:
Assay type in all cases: biochemical
ApUFGT3 [1] = target: T1, ApUFGT3 (Andrographis paniculata, UniProt A0A8E3S6A8); assay: UPLC conversion assay; conditions: UDP-glucose donor; 50 mM Tris-HCl pH 8.0, 40 °C
T1 construct: gene UGT4
T1 sequence (A0A8E3S6A8 1-463): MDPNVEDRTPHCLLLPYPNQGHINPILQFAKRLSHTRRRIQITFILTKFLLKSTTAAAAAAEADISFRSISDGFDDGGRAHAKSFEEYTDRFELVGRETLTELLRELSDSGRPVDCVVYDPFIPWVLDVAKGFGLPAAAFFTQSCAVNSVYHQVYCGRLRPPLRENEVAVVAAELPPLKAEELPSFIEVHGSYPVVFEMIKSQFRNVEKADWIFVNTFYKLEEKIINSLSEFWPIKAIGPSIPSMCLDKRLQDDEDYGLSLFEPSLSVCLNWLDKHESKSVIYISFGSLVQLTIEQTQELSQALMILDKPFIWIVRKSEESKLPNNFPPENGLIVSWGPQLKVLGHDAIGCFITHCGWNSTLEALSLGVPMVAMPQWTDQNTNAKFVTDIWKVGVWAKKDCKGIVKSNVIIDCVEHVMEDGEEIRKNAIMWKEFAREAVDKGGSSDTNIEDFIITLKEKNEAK

ApUFGT2 [2] = target: T2, ApUFGT2 (Andrographis paniculata, UniProt A0A8E3S624); assay: UPLC conversion assay; conditions: UDP-glucose donor; 50 mM Tris-HCl pH 8.0, 40 °C
T2 construct: gene UGT8
T2 sequence (A0A8E3S624 1-479): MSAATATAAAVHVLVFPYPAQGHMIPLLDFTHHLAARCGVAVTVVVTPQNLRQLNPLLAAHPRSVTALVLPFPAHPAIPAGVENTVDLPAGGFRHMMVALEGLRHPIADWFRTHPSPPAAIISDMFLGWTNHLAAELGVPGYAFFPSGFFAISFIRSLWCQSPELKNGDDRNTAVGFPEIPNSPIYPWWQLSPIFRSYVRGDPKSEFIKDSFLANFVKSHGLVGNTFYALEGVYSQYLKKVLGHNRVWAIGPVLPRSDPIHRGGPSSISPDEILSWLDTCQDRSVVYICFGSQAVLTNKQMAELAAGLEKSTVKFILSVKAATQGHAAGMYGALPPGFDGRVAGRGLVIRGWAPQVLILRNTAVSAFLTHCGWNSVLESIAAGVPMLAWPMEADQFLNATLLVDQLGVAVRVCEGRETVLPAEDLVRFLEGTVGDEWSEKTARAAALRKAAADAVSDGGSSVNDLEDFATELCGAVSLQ

ApUFGT1 [3] = target: T3, ApUFGT1 (Andrographis paniculata, UniProt A0A8E3MB50); assay: UPLC conversion assay; conditions: UDP-glucose donor; 50 mM Tris-HCl pH 8.0, 40 °C
T3 construct: gene UGT2
T3 sequence (A0A8E3MB50 1-485): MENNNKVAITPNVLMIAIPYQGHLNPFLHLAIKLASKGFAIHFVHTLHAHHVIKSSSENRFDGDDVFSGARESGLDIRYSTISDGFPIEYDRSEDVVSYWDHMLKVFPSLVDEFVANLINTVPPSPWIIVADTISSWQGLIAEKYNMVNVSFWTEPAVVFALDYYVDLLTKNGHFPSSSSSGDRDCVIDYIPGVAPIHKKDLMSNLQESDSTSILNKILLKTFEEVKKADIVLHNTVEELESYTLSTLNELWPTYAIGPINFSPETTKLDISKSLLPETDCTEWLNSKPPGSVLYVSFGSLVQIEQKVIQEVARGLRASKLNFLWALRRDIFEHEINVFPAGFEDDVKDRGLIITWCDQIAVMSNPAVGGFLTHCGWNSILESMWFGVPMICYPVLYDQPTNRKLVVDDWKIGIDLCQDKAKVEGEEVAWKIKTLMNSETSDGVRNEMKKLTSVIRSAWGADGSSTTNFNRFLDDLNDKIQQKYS

ApUFGT2 [4] = target: T2, ApUFGT2; assay: UPLC / Q-TOF-MS conversion assay; conditions: UDP-glucose 3200 µM, aglycone 320 µM; Tris-HCl pH 8.0, 40 °C, 6 h
ApUFGT1 [5] = target: T3, ApUFGT1; assay: UPLC / Q-TOF-MS conversion assay; conditions: UDP-glucose 3200 µM, aglycone 320 µM; Tris-HCl pH 8.0, 40 °C, 6 h
ApUFGT3 [6] = target: T1, ApUFGT3; assay: UPLC / Q-TOF-MS conversion assay; conditions: UDP-glucose 3200 µM, aglycone 320 µM; Tris-HCl pH 8.0, 40 °C, 6 h

Structure (SMILES)	UPLC conversion assay (ApUFGT3 [1])	UPLC conversion assay (ApUFGT2 [2])	UPLC conversion assay (ApUFGT1 [3])	UPLC / Q-TOF-MS conversion assay (ApUFGT2 [4])	UPLC / Q-TOF-MS conversion assay (ApUFGT1 [5])	UPLC / Q-TOF-MS conversion assay (ApUFGT3 [6])
COc1c(O)cc(O)c2c(=O)cc(-c3ccccc3)oc12 [wogonin]	glycosylation of wogonin catalysed by ApUFGTs	glycosylation of wogonin catalysed by ApUFGTs	glycosylation of wogonin catalysed by ApUFGTs	–	–	–
O=c1cc(-c2ccc(O)cc2)oc2cc(O)cc(O)c12 [compound 1, apigenin]	–	–	–	Product peak 1c was confirmed as apigetrin, namely, apigenin 7-O-glucoside	Product peak 1c was confirmed as apigetrin, namely, apigenin 7-O-glucoside	Product peak 1c was confirmed as apigetrin, namely, apigenin 7-O-glucoside
